Measured values reported in patent US20190256502A1, “ORGANIC COMPOUNDS” (HOX THERAPEUTICS LIMITED, priority 2016, published 2019).
Read-outs that look alike come from different tables or passages of the source.

Columns and labels:
MDA-MB-231 cells = experiment: MTT assay for cell killing, breast cancer cell line MDA-MB-231; format: cell-based; details: for IC50: Homo sapiens, MDA-MB-231, MTT, 72h
Procedure: The cytotoxicity of the peptides on the prostate cancer derived cell lines DU145, LnCaP, and PC3, and the breast cancer derived cell line MDA-MB-231 was tested as previously described (Morgan et al. 2014 ibid), using the MTT (3-[4,5-dimethylthiazol-2-yl]-2,5-diphenyltetrazolium bromide) assay for metabolic activity. 7000-16000 cells, depending on the cell line, were seeded onto 96-well cell plate and treated with 5, 10, 20, 40 and 80 μM of each compound for 72h, DMSO alone (negative control) for 72 hr, or HTL001 ([…]; International patent application published as WO2017068353; positive control) for 2 h. After treatment, MTT at a final concentration of 0.5 mg/ml was added. Upon 4h incubation the formed formazan crystals were dissolved in DMSO and the optical density (OD) measured at 540 nm with a spectrofluorimeter. Percentage of cell survival was calculated as a ratio of the mean OD value of treated vs. untreated cells. Experiments were repeated 3 times and statistical analysis performed using Student's t-test. All cell lines were cultured in RPMI media with added 10% FBS, 1% sodium pyruvate and 1% L-Glutamine. They were all cultured in an incubator at 37° C., 5% CO2. The assay was repeated 3 times and the results are given as the mean IC50 for cell killing±standard deviation.
The molecules were tested for their ability to induce cell death using the breast cancer cell line MDA-MB-231, with the HOX/PBX interfering peptide HTL001 (WYKWMKKAARRRRRRRRR; International patent application published as WO2017068353) as a positive control and DMSO as a negative control. Percentage of cell survival was evaluated with the MTT assay after treatment with different concentrations ([…], 10, 20, 40 and 80 μM) of each compound for 72h. The IC50 was evaluated as the concentration of the compound that reduces % of cell survival by half.
MDA-MB-231 cells were treated with different concentrations of Example 2 dissolved in either DMSO or PEG/Tris HCl and MTT assay performed. Data are means±SEM of four independent experiments.

cFOS [1] = experiment: cFOS expression in MDA-MB-231 cells (qRT-PCR); format: cell-based; details: for fold induction at 33 µM: Homo sapiens, qRT-PCR; for fold induction at 33 µM / cFos expression compared to untreated MDA-MB-231 cells: MDA-MB-231 cells, 2h, 33 μM
Procedure: MDA-MB-231 cells were seeded in 25 cm^2 plates and treated for 2h with 33 μM of each compound at 80% confluence. RNA was isolated using RNeasy Mini Kit-QIAGEN according to manufacturer's instructions and quantified with NanoDrop ND-1000. cDNA was generated from 1 μg of total RNA using High Capacity cDNA Reverse Transcription Kit in a 25 μl final reaction volume according to the manufacturer protocol. The expression of cFOS was quantified by qRT-PCR. Real-time PCR reactions were performed using 1:10 dilution (5 μl/well) of each cDNA added to TaqMan Universal PCR Master Mix and TaqMan Gene Expression Assay Hs00170630_m1 FOS. Amplification of glyceraldehyde 3-phosphate dehydrogenase (GAPDH) probe was performed as endogenous control. The comparative Ct method (ΔΔCt algorithm) was used for analysis. Independent experiments were performed in triplicates and repeated three times. Statistical analysis was performed with Student's t-test.
MDA MB 231 cells were treated for 4h with 4×IC50 Example 2 in PEG/Tris HCl. RNA was isolated and RT-PCR performed to detect expression of cFOS. Data are means±SEM of four independent experiments. Significance to PEG/Tris HCl: **p<0.01 (Ttest).

DUSP1 [2] = experiment: DUSP1 expression in PC3 prostate cancer cells (RT-PCR); format: cell-based; details: 4h, 120 μM in PEG/Tris HCl
Procedure: (§1) PC3 cells were treated for 4h with 120 μM Example 2 in PEG/Tris HCl. RNA was isolated and RT-PCR performed to detect expression of cFOS and DUSP1. Data are means±SEM of three independent experiments. Significance to PEG/Tris HCl: **p<0.01, ***p<0.001 (Ttest).

cFOS [3] = experiment: cFOS expression in PC3 prostate cancer cells (RT-PCR); format: cell-based; details: 4h, 120 μM in PEG/Tris HCl
Procedure: as §1

DUSP1 [4] = experiment: DUSP1 expression in DU145 prostate cancer cells (RT-PCR); format: cell-based; details: 4h, 120 μM in PEG/Tris HCl
Procedure: (§2) DU145 cells were treated for 4h with 120 μM Example 2 in PEG/Tris HCl. RNA was isolated and RT-PCR performed to detect expression of cFOS and DUSP1. Data are means±SEM of three independent experiments. *p<0.05 (Ttest).

cFOS [5] = experiment: cFOS expression in DU145 prostate cancer cells (RT-PCR); format: cell-based; details: 4h, 120 μM in PEG/Tris HCl
Procedure: as §2

MDA-MB-231 tumour = experiment: In vivo study, MDA-MB-231 tumour in Balb-c nude mice; details: 20 mg/Kg, IP, day 0, 3, 6, 9, 10 & 13
Procedure: MDA-MB-231 cells were injected subcutaneously into female or male Balb-c nude mice aged 6 to 12 weeks (Harlan, UK). When the tumour size reached 100 mm^3 mice were injected intratumouraly with Example 2 at the intervals shown on the graph. Mice were sacrificed when the tumour size reached 1000 mm^3 or at the end of the experiment (14 days).
Treatment of MDA-MB-231 tumour with Example 2 (ICT9119): Group 1—Untreated controls Group 2—10% DMSO/Oil solvent control, IP, day 0, 3, 6, 9, 10 & 13 Group 3—Example 2, 20 mg/Kg, IP, day 0, 3, 6, 9, 10 & 13

Solubility studies = format: physicochemical
Source text: Example 2 was solubilised in PEG400 and propylene glycol (PG).

HOXB4/PBX2 dimers = biological target: T1, HOXB4/PBX2 dimers (Homo sapiens, UniProt P40425); experiment: Cell based ELISA assay for HOX/PBX binding (HOXB4/PBX2 dimer assay); details: MDA-MB-231 cells treated with 10 μM for 4 hours; compared to negative control (DMSO); read-out: % inhibition of HOXB4/PBX2 dimer formation
T1 construct: endogenous in cells; host or cells: MDA-MB-231
T1 sequence (P40425 1-430): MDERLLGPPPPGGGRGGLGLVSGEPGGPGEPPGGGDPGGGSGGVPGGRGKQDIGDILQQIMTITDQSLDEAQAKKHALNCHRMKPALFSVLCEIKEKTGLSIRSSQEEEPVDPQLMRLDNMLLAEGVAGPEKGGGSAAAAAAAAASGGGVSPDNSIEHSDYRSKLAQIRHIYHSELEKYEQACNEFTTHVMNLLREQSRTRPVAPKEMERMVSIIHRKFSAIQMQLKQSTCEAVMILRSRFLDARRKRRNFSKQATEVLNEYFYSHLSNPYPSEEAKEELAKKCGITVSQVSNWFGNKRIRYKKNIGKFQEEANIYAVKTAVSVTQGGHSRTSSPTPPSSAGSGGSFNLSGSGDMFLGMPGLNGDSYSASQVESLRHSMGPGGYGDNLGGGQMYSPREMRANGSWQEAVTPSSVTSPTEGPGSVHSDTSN
Procedure: In order to directly assess the ability of each compound to disrupt HOX/PBX binding a cell-based assay system was developed that could allow the formation of HOX/PBX/DNA dimers. Cultured MDA-MB-231 cells were treated with 10 μM of each compound for 4 hours and then used to generate a cell lysate using a standard preparation method as described below. HOXB4/PBX2 dimers were then measured using an ELISA-based system as detailed in the table below. The values from this assay are expressed as % inhibition of dimer formation compared to a negative control (DMSO).
1. Collect approximately 5.0×10^7 cells by low-speed centrifugation at RT for 5 min. Carefully remove culture medium. 2. Wash the cellular debris (pellet) with PBS at RT, and collect by low-speed centrifugation. Carefully remove supernatant (total protein). 3. Add 1.0 ml of pre-cold RIPA buffer (or other appropriate buffer) with freshly added (Protease Inhibitors) and/or (Phosphatase Inhibitors). Gently resuspend cells in RIPA buffer with a pipet and incubate on ice for 30 min. 4. Further disrupt and homogenize cells by passing through a 21-gauge needle, dounce homogenization or sonication, taking care not to raise the temperature of the lysate. (Optional: Add 10 μl of 10 mg/ml PMSF stock) Incubate 30 min on ice. 5. Transfer to microcentrifuge tube(s) and centrifuge at 10,000×g for 10 min at 4° C. […]

[6] = no induced cell death observed at 80 μM, read-out: IC50 values for the urea analogue reference examples
[7] = average of experiments, read-out: IC50 Average
[8] = single experiment 1, read-out: IC50 Exp1
[9] = single experiment 2, read-out: IC50 Exp2
[10] = MDA-MB-231 tumour in Balb-c nude mice
[11] = single experiment 3, read-out: IC50 Exp3
[12] = single experiment 4, read-out: IC50 Exp4

SMILES	IC50 (MDA-MB-231 cells; [6])	IC50 (MDA-MB-231 cells; [7])	IC50 (MDA-MB-231 cells; [8])	IC50 (MDA-MB-231 cells; [9])	IC50 (MDA-MB-231 cells; [11])	other results
C#CCNC(=O)NCC(c1cccs1)c1c[nH]c2ccccc12 (stereo not shown) [A, reference compound]	> 80 µM					
O=C(NCC1CC1)NCC(c1cccs1)c1c[nH]c2ccccc12 (stereo not shown) [B, reference compound]	> 80 µM					
CCCNC(=O)NCC(c1ccsc1)c1c[nH]c2ccccc12 (stereo not shown) [C, reference compound]	> 80 µM					
C=C(C)CNC(=O)NCC(c1ccsc1)c1c[nH]c2ccccc12 (stereo not shown) [D, reference compound]	> 80 µM					
CCCCCCCNC(=S)NCC(c1cccs1)c1c[nH]c2ccccc12 (stereo not shown) [Example 1, 1-heptyl-3-[2-(1H-indol-3-yl)-2-(2-thienyl)ethyl]thiourea]		33 µM	21.8 µM	44.3 µM		fold induction at 33 µM (cFOS [1]): 32.5; cFos expression compared to untreated MDA-MB-231 cells (cFOS [1]): significant increase
CCCCCCNC(=S)NCC(c1cccs1)c1c[nH]c2ccccc12 (stereo not shown) [Example 2, 1-hexyl-3-[2-(1H-indol-3-yl)-2-(2-thienyl)ethyl]thiourea]		37.9 µM	36.7 µM	39 µM		DUSP1 expression in PC3 cells (DUSP1 [2]): significantly increased; cFOS expression in PC3 cells (cFOS [3]): significantly increased; DUSP1 expression in DU145 cells (DUSP1 [4]): significantly increased; cFOS expression in DU145 cells (cFOS [5]): significantly increased; MDA-MB-231 cell survival, in PEG/Tris HCl in comparison with in DMSO (MDA-MB-231 cells; MTT assay, four independent experiments, p<0.05): significantly decreased; cFOS expression in MDA-MB-231 cells (cFOS [1]; 4h, 4×IC50, in PEG/Tris HCl, p<0.01 to PEG/Tris HCl): significantly increased; Maximum % weight loss (MDA-MB-231 tumour; Balb-c nude mice): 0%; Growth delay (MDA-MB-231 tumour; [10]): 4.2 days; Median time RTV 2 (MDA-MB-231 tumour; [10]): 8.9 days; behaviour on dilution with water (Solubility studies; diluted with water with polysorbate 80 (Tween 80) at a final concentration of 5%): remained in solution; concentration achieved in propylene glycol (PG) (Solubility studies; solubilised in PG): up to 5 mg/mL
CCCCCNC(=S)NCC(c1cccs1)c1c[nH]c2ccccc12 (stereo not shown) [Example 3, 1-pentyl-3-[2-(1H-indol-3-yl)-2-(2-thienyl)ethyl]thiourea]		35.3 µM	21.3 µM	49.2 µM		
S=C(NCC1CCCCC1)NCC(c1cccs1)c1c[nH]c2ccccc12 (stereo not shown) [Example 4, 1-cyclohexylmethyl-3-[2-(1H-indol-3-yl)-2-(2-thienyl)ethyl]thiourea]		53 µM	65.8 µM	40.3 µM		
C=C(C)CNC(=S)NCC(c1cccs1)c1c[nH]c2ccccc12 (stereo not shown) [Example 5]		45.5 µM	47.9 µM	45 µM	43.7 µM	fold induction at 33 µM (cFOS [1]): 37.4; cFos expression compared to untreated MDA-MB-231 cells (cFOS [1]): significant increase; inhibition at 10 µM (HOXB4/PBX2 dimers): 39.2%
CNC(=S)NCC(c1cccs1)c1c[nH]c2ccccc12 (stereo not shown) [Example 6]		61.6 µM	68 µM	48 µM	68.9 µM	
CCNC(=S)NCC(c1cccs1)c1c[nH]c2ccccc12 (stereo not shown) [Example 7]		60.9 µM	51.8 µM	65.8 µM	65 µM	
CCCNC(=S)NCC(c1cccs1)c1c[nH]c2ccccc12 (stereo not shown) [Example 8]		51.9 µM	42.7 µM	48.6 µM	56.1 µM	IC50 (MDA-MB-231 cells; [12]): 59.9 µM
CCCCNC(=S)NCC(c1cccs1)c1c[nH]c2ccccc12 (stereo not shown) [Example 9]		41.2 µM	40.9 µM	37.3 µM	29.8 µM	IC50 (MDA-MB-231 cells; [12]): 41 µM; IC50 (MDA-MB-231 cells; single experiment 5, read-out: IC50 Exp5): 57.2 µM
